This passage reports MIC results from ChEMBL document CHEMBL3421558, “Structure activity relationship of substituted 1,5-naphthyridine analogs of oxabicyclooctane-linked novel bacterial topoisomerase inhibitors as broad-spectrum antibacterial agents (Part-4)” (Bioorg Med Chem Lett, 2015).

In brackets after ≈: the same amount, converted by molar mass.

Type in all cases: functional
Assay [1] relates to Staphylococcus aureus. In words: Antimicrobial activity against Staphylococcus aureus Smith by micro broth dilution or agar based method. The settings on record: Staphylococcus aureus, Smith; read-out: MIC.
For assay [2], the system named is Staphylococcus aureus. Description: Antimicrobial activity against methicillin-resistant Staphylococcus aureus OIT971 by micro broth dilution or agar based method.
The test system of the next assay is Streptococcus pneumoniae. Description: Antimicrobial activity against Streptococcus pneumoniae IID553 by micro broth dilution or agar based method. The settings on record: Streptococcus pneumoniae, IID553; read-out: MIC. (In general: Broth dilution looks for growth in wells or tubes with falling amounts of substance.)
For another assay, the system named is Enterococcus faecium. Description: Antimicrobial activity against VanA expressing vancomycin-resistant Enterococcus faecium by micro broth dilution or agar based method. As to conditions: Enterococcus faecium; read-out: MIC.
The subject of the next assay is Escherichia coli. Description: Antimicrobial activity against Escherichia coli ATCC 25922 by micro broth dilution or agar based method. The settings on record: Escherichia coli, ATCC 25922; read-out: MIC.
The test system of the next assay is Acinetobacter baumannii. Description: Antimicrobial activity against Acinetobacter baumannii IID876 by micro broth dilution or agar based method. As to conditions: Acinetobacter baumannii, IID876; read-out: MIC.
The test system of a further assay is Pseudomonas aeruginosa. Description: Antimicrobial activity against Pseudomonas aeruginosa PAO1 by micro broth dilution or agar based method. As to conditions: Pseudomonas aeruginosa, PAO1; read-out: MIC.

By MIC is commonly meant the lowest concentration found to suppress growth. With `COc1cc2nccc(CCC34CCC(NCc5ccc6c(n5)NC(=O)CO6)(CC3)CO4)c2nc1C(=O)O`, the MIC with Staphylococcus aureus [1], in the assay with Staphylococcus aureus [2], in the assay with Streptococcus pneumoniae, in the assay with Enterococcus faecium, with Escherichia coli and in the assay on Acinetobacter baumannii was 16 µg/mL (≈ 30.8 µM) in each case. Also, the minimum inhibitory concentration (MIC) with Pseudomonas aeruginosa is 16 µg/mL (≈ 30.8 µM).

With `O=C1COc2ccc(CNC34CCC(CCc5c(F)cnc6cccnc56)(CC3)OC4)nc2N1`, the MIC was 0.5 µg/mL (≈ 1.08 µM) in the assay on Staphylococcus aureus [1]; 0.25 µg/mL (≈ 0.539 µM) with Staphylococcus aureus [2]; 4 µg/mL (≈ 8.63 µM) in the assay with Streptococcus pneumoniae; 4 µg/mL (≈ 8.63 µM) in the assay on Enterococcus faecium; 4 µg/mL (≈ 8.63 µM) in the assay on Escherichia coli; 1 µg/mL (≈ 2.16 µM) in the assay on Acinetobacter baumannii. In addition, the minimum inhibitory concentration (MIC) in the assay with Pseudomonas aeruginosa was 16 µg/mL (≈ 34.5 µM).

In the case of `O=C1COc2ccc(CNC34CCC(CCc5ccnc6ccc(C(F)(F)F)nc56)(CC3)OC4)nc2N1`, the minimum inhibitory concentration (MIC) with Staphylococcus aureus [1] turned out to be 2 µg/mL (≈ 3.89 µM); with Staphylococcus aureus [2], 1 µg/mL (≈ 1.95 µM); in the assay on Streptococcus pneumoniae, 32 µg/mL (≈ 62.3 µM); in the assay with Enterococcus faecium it was 16 µg/mL (≈ 31.2 µM); in the assay on Escherichia coli it was 32 µg/mL (≈ 62.3 µM); in the assay on Acinetobacter baumannii, 8 µg/mL (≈ 15.6 µM). Besides, the MIC in the assay on Pseudomonas aeruginosa was determined as 64 µg/mL (≈ 125 µM).

For `O=C1COc2ccc(CNC34CCC(CCc5c(F)cnc6ccc(O)nc56)(CC3)OC4)nc2N1`, the minimal inhibitory concentration (MIC) worked out at 0.5 µg/mL (≈ 1.04 µM) with Staphylococcus aureus [1]; 0.25 µg/mL (≈ 0.521 µM) against Staphylococcus aureus [2]; 4 µg/mL (≈ 8.34 µM) in the assay with Streptococcus pneumoniae; 8 µg/mL (≈ 16.7 µM) in the assay with Enterococcus faecium; 4 µg/mL (≈ 8.34 µM) in the assay with Escherichia coli; 2 µg/mL (≈ 4.17 µM) in the assay with Acinetobacter baumannii. In addition, the minimal inhibitory concentration (MIC) with Pseudomonas aeruginosa was found to be 32 µg/mL (≈ 66.7 µM).

For the molecule `Nc1ccc2ncc(F)c(CCC34CCC(NCc5ccc6c(n5)NC(=O)CO6)(CC3)CO4)c2n1`, the MIC was 2 µg/mL (≈ 4.18 µM) with Staphylococcus aureus [1]; 1 µg/mL (≈ 2.09 µM) against Staphylococcus aureus [2]; 16 µg/mL (≈ 33.4 µM) in the assay on Streptococcus pneumoniae; 8 µg/mL (≈ 16.7 µM) in the assay with Enterococcus faecium; 8 µg/mL (≈ 16.7 µM) in the assay with Escherichia coli; 2 µg/mL (≈ 4.18 µM) in the assay on Acinetobacter baumannii. The minimum inhibitory concentration (MIC) in the assay on Pseudomonas aeruginosa came out at 16 µg/mL (≈ 33.4 µM).

Turning to `COc1nc2c(CCC34CCC(NCc5ccc6c(n5)NC(=O)CO6)(CC3)CO4)ccnc2cc1C#N`, the minimal inhibitory concentration (MIC) came to 16 µg/mL (≈ 32 µM) in the assay with Staphylococcus aureus [1]; 2 µg/mL (≈ 4 µM) in the assay with Staphylococcus aureus [2]; 64 µg/mL (≈ 128 µM) in the assay with Streptococcus pneumoniae; 64 µg/mL (≈ 128 µM) with Enterococcus faecium; 64 µg/mL (≈ 128 µM) with Escherichia coli; 64 µg/mL (≈ 128 µM) in the assay with Acinetobacter baumannii. Also, in the assay with Pseudomonas aeruginosa, the MIC stood at 64 µg/mL (≈ 128 µM).

As to `O=C1COc2ccc(CNC34CCC(CCc5c(F)cnc6ccc(C(=O)O)nc56)(CC3)OC4)nc2N1`, the MIC in the assay on Staphylococcus aureus [1], in the assay on Staphylococcus aureus [2], with Streptococcus pneumoniae, with Enterococcus faecium, in the assay on Escherichia coli and in the assay on Acinetobacter baumannii was 16 µg/mL (≈ 31.5 µM) each time. For the same molecule, in the assay on Pseudomonas aeruginosa, the MIC turned out to be 16 µg/mL (≈ 31.5 µM).

For `COc1cc(CCC23CCC(NCc4ccc5c(n4)NC(=O)CO5)(CC2)CO3)c2nc(OC)ccc2n1`, the minimal inhibitory concentration (MIC) with Staphylococcus aureus [1] was 4 µg/mL (≈ 7.91 µM); in the assay on Staphylococcus aureus [2], 1 µg/mL (≈ 1.98 µM); with Streptococcus pneumoniae, 8 µg/mL (≈ 15.8 µM); in the assay on Enterococcus faecium, 8 µg/mL (≈ 15.8 µM); in the assay with Escherichia coli it was 8 µg/mL (≈ 15.8 µM); with Acinetobacter baumannii, 8 µg/mL (≈ 15.8 µM). In addition, in the assay with Pseudomonas aeruginosa, the MIC was 8 µg/mL (≈ 15.8 µM).

With `COc1ccc2ncc(C(F)F)c(CCC34CCC(NCc5ccc6c(n5)NC(=O)CO6)(CC3)CO4)c2n1`, the MIC with Staphylococcus aureus [1] amounted to 0.03 µg/mL (≈ 0.0571 µM); with Streptococcus pneumoniae it was 0.12 µg/mL (≈ 0.228 µM); with Enterococcus faecium, 1 µg/mL (≈ 1.9 µM); in the assay with Escherichia coli it was 4 µg/mL (≈ 7.61 µM); in the assay on Acinetobacter baumannii it was 2 µg/mL (≈ 3.81 µM); with Pseudomonas aeruginosa it was 16 µg/mL (≈ 30.4 µM).

Take `N#Cc1ccc2ncc(F)c(CCC34CCC(NCc5ccc6c(n5)NC(=O)CO6)(CC3)CO4)c2n1`: the minimal inhibitory concentration (MIC) is 0.063 µg/mL (≈ 0.129 µM) in the assay with Staphylococcus aureus [1]; 0.063 µg/mL (≈ 0.129 µM) against Staphylococcus aureus [2]; 1 µg/mL (≈ 2.05 µM) in the assay on Streptococcus pneumoniae; 2 µg/mL (≈ 4.09 µM) in the assay with Enterococcus faecium; 2 µg/mL (≈ 4.09 µM) with Escherichia coli; 1 µg/mL (≈ 2.05 µM) in the assay with Acinetobacter baumannii. For the same molecule, the MIC with Pseudomonas aeruginosa amounted to 8 µg/mL (≈ 16.4 µM).

On to `COc1ccc2ncc(Cl)c(CCC34CCC(NCc5ccc6c(n5)NC(=O)CO6)(CC3)CO4)c2n1`, for which the MIC came out at 0.008 µg/mL (≈ 0.0157 µM) with Staphylococcus aureus [1]; 0.008 µg/mL (≈ 0.0157 µM) against Staphylococcus aureus [2]; 0.25 µg/mL (≈ 0.49 µM) in the assay on Streptococcus pneumoniae; 1 µg/mL (≈ 1.96 µM) with Enterococcus faecium; 2 µg/mL (≈ 3.92 µM) in the assay with Escherichia coli; 1 µg/mL (≈ 1.96 µM) in the assay with Acinetobacter baumannii. Further, in the assay with Pseudomonas aeruginosa, the minimal inhibitory concentration (MIC) came out at 8 µg/mL (≈ 15.7 µM).

Turning to `COc1ccc2ncc(S(C)(=O)=O)c(CCC34CCC(NCc5ccc6c(n5)NC(=O)CO6)(CC3)CO4)c2n1`, the minimal inhibitory concentration (MIC) amounted to 0.25 µg/mL (≈ 0.452 µM) with Staphylococcus aureus [1]; 0.5 µg/mL (≈ 0.903 µM) with Streptococcus pneumoniae; 4 µg/mL (≈ 7.22 µM) with Enterococcus faecium; 16 µg/mL (≈ 28.9 µM) in the assay on Escherichia coli; 8 µg/mL (≈ 14.4 µM) in the assay with Acinetobacter baumannii; 32 µg/mL (≈ 57.8 µM) in the assay with Pseudomonas aeruginosa.

Turning to `COc1ccc2ncc(CO)c(CCC34CCC(NCc5ccc6c(n5)NC(=O)CO6)(CC3)CO4)c2n1`, the MIC with Staphylococcus aureus [1] is 0.5 µg/mL (≈ 0.989 µM); in the assay with Streptococcus pneumoniae, 0.5 µg/mL (≈ 0.989 µM); with Enterococcus faecium it was 4 µg/mL (≈ 7.91 µM); with Escherichia coli, 16 µg/mL (≈ 31.6 µM); in the assay with Acinetobacter baumannii, 8 µg/mL (≈ 15.8 µM); in the assay with Pseudomonas aeruginosa, 32 µg/mL (≈ 63.3 µM).

For the molecule `COc1ccc2ncc(C(N)=O)c(CCC34CCC(NCc5ccc6c(n5)NC(=O)CO6)(CC3)CO4)c2n1`, the MIC was 4 µg/mL (≈ 7.71 µM) with Staphylococcus aureus [1]; 2 µg/mL (≈ 3.86 µM) with Streptococcus pneumoniae; 16 µg/mL (≈ 30.9 µM) with Enterococcus faecium; 32 µg/mL (≈ 61.7 µM) in the assay on Escherichia coli; 32 µg/mL (≈ 61.7 µM) in the assay on Acinetobacter baumannii; 32 µg/mL (≈ 61.7 µM) in the assay with Pseudomonas aeruginosa.
